Here are results for three compounds from patent US20250382344A1, “Soluble GLP1/GIP/NPY2 Receptor Triple Agonists” (Boehringer Ingelheim International GmH, priority 2024, published 2025).

Data set [1] can be described thus: Solubility in 0.1 M phosphate buffer at pH 7. The format is physicochemical. The note with it: 0.1 M phosphate buffer at pH 7, 10 mg/mL final peptide concentration, shaking 2 hours at room temperature, peptides as TFA-salts; measured sample pH 6.5-7.0.
A further data set relates to Normal NMRI Mice. Briefly: Effect on acute food intake in normal NMRI mice. The format is in vivo. The note with it: male NMRI mice, single subcutaneous dose 100 nmol/kg, 24 hours food intake normalized to vehicle group. How it is done:
Male NMRI mice were obtained from Janvier (Janvier Labs, France) or from Charles River (Charles River Research Models & Services Germany GmbH) at the age of 3 weeks. The animals get a microchip (Datamars, Slim Microchip T-SL) for individual identification after delivery. They were housed with 4 mice per cage under a 12/12 dark-light cycle, light off at 3 p.m. Room temperature was controlled to 21° C.+/−1° C. and humidity 60%+/−20%. Mice had ad libitum access to regular rodent chow (KLIBA Nafag 3040 or Altromin 1324, Brogaarden, Denmark) and tap water.
Latest transfer into the HM2-System of MBRose, Denmark (real-time monitoring system of food- and water intake) of the animals 5 days before study start, to allow acclimatization to experimental conditions. As the animals were uniquely identified with the microchips, each individual animal was identified by its own microchip upon entry and exit from the food channel via antennae. Randomization of the mice for each study group (n=8; age earliest 6 weeks old) was based on food intake (middle of last three days 24 h-interval) and bodyweight directly before start of the study. A vehicle treated (50 mM phosphate buffer pH 7.4 with 3.5% mannitol) group was included in each experiment. To have the same nutrition standard for each animal the food access was locked eight hours before dark phase. One hour before night, the animals were once treated subcutaneously with the test peptide. Food intake was reported hourly for a period of 24 hours.

Another data set addresses T1, hGIPR (Homo sapiens, UniProt P48546).
T1 construct: expressed in transfected cells; host or cells: CHO CRE-luciferase reporter cells
T1 sequence (P48546 22-466): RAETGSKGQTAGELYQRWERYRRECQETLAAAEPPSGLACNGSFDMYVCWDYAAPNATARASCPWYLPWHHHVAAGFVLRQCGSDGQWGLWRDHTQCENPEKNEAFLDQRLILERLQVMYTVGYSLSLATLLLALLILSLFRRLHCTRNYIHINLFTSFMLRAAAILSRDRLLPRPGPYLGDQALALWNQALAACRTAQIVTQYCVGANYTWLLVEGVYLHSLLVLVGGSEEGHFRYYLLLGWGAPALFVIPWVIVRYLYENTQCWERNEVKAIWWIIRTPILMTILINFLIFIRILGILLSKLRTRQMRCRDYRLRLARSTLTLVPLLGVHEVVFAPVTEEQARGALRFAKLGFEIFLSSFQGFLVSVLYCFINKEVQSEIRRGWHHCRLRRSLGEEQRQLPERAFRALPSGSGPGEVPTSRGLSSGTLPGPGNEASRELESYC
The data set is described as follows: hGIPR CreLuc assay in 0.5% and 100% plasma (CHO CRE-luciferase reporter cells). The format is cell-based. For orientation: A reporter such as luciferase makes a cellular process visible.

A short description of data set [2]: Mouse PK after intravenous application. The settings on record: plasma, male NMRI mice, intravenous 30-60 nmol/kg, non-compartmental analysis. The data set is classed as in vivo. The protocol:
Pharmacokinetic parameters of the peptides were determined after intravenous application to NMRI mice (Naval Medical Research Institute mice). Male NMRI mice were obtained from Janvier Laboratories (France) weighing 30 g to 40 g. Mice were housed in standard cages with a 12:12 hours light:dark cycle and standard food and water access ad libitum. Each test peptide was dissolved in 50 mM phosphate buffer (pH 7.4)/3.5% mannitol. Intravenous application of 30-60 nmol/kg was performed via the tail vein. Serial blood samples from conscious mice were collected from the saphenous vein in EDTA-containing vials at different time points up to 56 hours post-dosing. Subsequently, plasma was prepared by centrifugation for 5 minutes at approximately 5000 rpm and stored at −20° C. until quantification of the peptide plasma levels by liquid chromatography mass spectrometry (LC-MS). Individual plasma concentration-time profiles were analysed by a non-compartmental approach and the resulting pharmacokinetic parameters were calculated.

The next data set deals with T2, hNPY2R (Homo sapiens, UniProt P49146).
T2 construct: expressed in transfected cells; host or cells: HEK-293 CRE-luciferase reporter cells
T2 sequence (P49146 1-381): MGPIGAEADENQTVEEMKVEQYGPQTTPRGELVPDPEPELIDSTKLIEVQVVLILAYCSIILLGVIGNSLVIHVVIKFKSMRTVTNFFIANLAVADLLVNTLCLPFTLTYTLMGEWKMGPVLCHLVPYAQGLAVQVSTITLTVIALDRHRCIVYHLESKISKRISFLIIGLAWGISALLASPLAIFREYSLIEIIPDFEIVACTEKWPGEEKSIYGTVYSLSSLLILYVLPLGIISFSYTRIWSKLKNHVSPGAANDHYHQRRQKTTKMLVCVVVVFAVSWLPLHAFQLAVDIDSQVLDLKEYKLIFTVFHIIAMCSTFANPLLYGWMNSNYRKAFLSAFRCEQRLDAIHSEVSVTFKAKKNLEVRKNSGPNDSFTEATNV
Briefly: hNPY2R CreLuc assay in 0.5% and 100% plasma (HEK-293 CRE-luciferase reporter cells). The format is cell-based. The note with it: 0.5% human plasma, HEK-293 reporter cells, read-out: hNPY2R 0.5% hP.

The target in another data set is T3, hGLP1R (Homo sapiens, UniProt P43220).
T3 construct: expressed in transfected cells; host or cells: HEK-293 CRE-luciferase reporter cells
Briefly: hGLP1R CreLuc assay in 0.5% and 100% plasma (HEK-293 CRE-luciferase reporter cells). The note with it: HEK-293 reporter cells. The data set is classed as cell-based.

[3] abbreviates: 0.5% human plasma, read-out: hGIPR 0.5% hP.
Where [4] appears, read: 0.5% human plasma, read-out: hGLP1R 0.5% hP.

Where two headings read alike, the source gives them in different places.

The solubility is the dissolved amount per volume that the medium holds. For orientation: MRT means a mean duration of stay, worked out from the concentration-time curve.

T3 sequence (P43220 24-463): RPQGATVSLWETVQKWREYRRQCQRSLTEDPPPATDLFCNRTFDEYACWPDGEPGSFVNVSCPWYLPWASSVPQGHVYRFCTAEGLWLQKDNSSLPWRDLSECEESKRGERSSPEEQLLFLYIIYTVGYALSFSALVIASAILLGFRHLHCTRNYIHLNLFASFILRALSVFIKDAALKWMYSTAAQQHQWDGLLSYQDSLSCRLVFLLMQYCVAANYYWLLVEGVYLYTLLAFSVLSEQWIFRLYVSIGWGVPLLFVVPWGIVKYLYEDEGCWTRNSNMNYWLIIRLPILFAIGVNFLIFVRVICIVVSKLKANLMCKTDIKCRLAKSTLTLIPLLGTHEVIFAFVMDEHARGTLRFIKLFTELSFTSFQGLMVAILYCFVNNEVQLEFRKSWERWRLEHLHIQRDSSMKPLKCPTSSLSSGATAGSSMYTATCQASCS

On to `CC[C@H](C)[C@H](NC(=O)[C@H](CC(C)C)NC(=O)[C@H](Cc1c[nH]cn1)NC(=O)[C@H](CCCNC(=N)N)NC(=O)[C@@H](NC(=O)[C@H](Cc1ccccc1)NC(=O)[C@H](C)NC(=O)C(C)(C)NC(=O)[C@H](CCC(N)=O)NC(=O)[C@H](C)NC(=O)[C@H](CCC(N)=O)NC(=O)[C@H](CCCCN)NC(=O)[C@H](CCC(=O)O)NC(=O)[C@H](CC(C)C)NC(=O)C(C)(C)NC(=O)[C@@H](NC(=O)[C@H](CO)NC(=O)[C@H](CC(C)C)NC(=O)[C@H](CC(=O)O)NC(=O)[C@H](CO)NC(=O)[C@@H](NC(=O)[C@H](Cc1ccccc1)NC(=O)[C@@H](NC(=O)CNC(=O)[C@H](CCC(=O)O)NC(=O)C(C)(C)NC(=O)[C@@H](N)Cc1ccc(O)cc1)[C@@H](C)O)[C@@H](C)O)[C@@H](C)CC)C(C)C)C(=O)N[C@@H](CC(N)=O)C(=O)N[C@@H](CCCCNC(=O)[C@@H](N)CCCCNC(=O)CC[C@H](NC(=O)CC[C@H](NC(=O)CC[C@H](NC(=O)CC[C@H](NC(=O)CC[C@H](NC(=O)CC[C@H](NC(=O)CCCCCCCCCCCCCCCCCCC(=O)O)C(=O)O)C(=O)O)C(=O)O)C(=O)O)C(=O)O)C(=O)O)C(=O)NC(C)(C)C(=O)N[C@H](C(=O)N[C@@H](CCCNC(=N)N)C(=O)N[C@@H](CCC(N)=O)C(=O)N[C@@H](CCCNC(=N)N)C(=O)N[C@@H](Cc1ccc(O)cc1)C(N)=O)[C@@H](C)O` [Compound 20, Y-Aib-E-G-T-F-T-S-D-L-S-I-Aib-L-E-K-Q-A-Q-Aib-A-F-V-R-H-L-I-N-K(1,3)-Aib-T-R-Q-R-Y-NH2.C20DA-gGlu-gGlu-gGlu-gGlu-gGlu-gGlu-eLys(1,2)], for which the solubility at 2 h in data set [1] amounted to 8500 µg/mL. Moreover, the “Acute Food Intake 24 hours 100 nmol/kg [% CTL]” value in the data set with Normal NMRI Mice is recorded as 79 % CTL. The EC50 at hGIPR (hGIPR 0.5% hP (nM), 0.5% human plasma) is 0.4 nM; on hGIPR (hGIPR 100% hP (nM), 100% human plasma), 6.9 nM.
In turn, `CC[C@H](C)[C@H](NC(=O)[C@H](CC(C)C)NC(=O)[C@H](Cc1c[nH]cn1)NC(=O)[C@H](CCCNC(=N)N)NC(=O)[C@@H](NC(=O)[C@H](Cc1ccccc1)NC(=O)[C@H](CCC(=O)O)NC(=O)C(C)(C)NC(=O)[C@H](CCC(N)=O)NC(=O)[C@H](C)NC(=O)[C@H](CCC(N)=O)NC(=O)[C@H](CCCCN)NC(=O)[C@H](CCC(=O)O)NC(=O)[C@H](CC(C)C)NC(=O)C(C)(C)NC(=O)[C@@H](NC(=O)[C@H](CO)NC(=O)[C@H](Cc1ccc(O)cc1)NC(=O)[C@H](CC(=O)O)NC(=O)[C@H](CO)NC(=O)[C@@H](NC(=O)[C@H](Cc1ccccc1)NC(=O)[C@@H](NC(=O)CNC(=O)[C@H](CCC(=O)O)NC(=O)C(C)(C)NC(=O)[C@@H](N)Cc1ccc(O)cc1)[C@@H](C)O)[C@@H](C)O)[C@@H](C)CC)C(C)C)C(=O)N[C@@H](CC(N)=O)C(=O)N[C@@H](CCCCNC(=O)[C@@H](N)CCCCNC(=O)CC[C@H](NC(=O)CC[C@H](NC(=O)CC[C@H](NC(=O)CC[C@H](NC(=O)CC[C@H](NC(=O)CC[C@H](NC(=O)CCCCCCCCCCCCCCCCC(=O)O)C(=O)O)C(=O)O)C(=O)O)C(=O)O)C(=O)O)C(=O)O)C(=O)N[C@@H](CC(C)C)C(=O)N[C@H](C(=O)N[C@@H](CCCNC(=N)N)C(=O)N[C@@H](CCC(N)=O)C(=O)N[C@@H](CCCNC(=N)N)C(=O)N[C@@H](Cc1ccc(O)cc1)C(N)=O)[C@@H](C)O` [Compound 83, Y-Aib-E-G-T-F-T-S-D-Y-S-I-Aib-L-E-K-Q-A-Q-Aib-E-F-V-R-H-L-I-N-K(1,3)-L-T-R-Q-R-Y-NH2.C18DA-gGlu-gGlu-gGlu-gGlu-gGlu-gGlu-eLys(1,2)] came in with an MRT in data set [2] of 7.8 h. Further, the EC50 came out at 16.8 nM on hNPY2R, 0.4 nM on hGIPR (setting [3]) and 0.6 nM at hGLP1R (setting [4]). The solubility at 2 h in data set [1] is 3800 µg/mL.
In turn, `CC[C@H](C)[C@H](NC(=O)[C@H](CC(C)C)NC(=O)[C@H](Cc1c[nH]cn1)NC(=O)[C@H](CCCNC(=N)N)NC(=O)[C@@H](NC(=O)[C@H](Cc1ccccc1)NC(=O)[C@H](C)NC(=O)C(C)(C)NC(=O)[C@H](CCC(N)=O)NC(=O)[C@H](C)NC(=O)[C@H](CCC(N)=O)NC(=O)[C@H](CCCCN)NC(=O)[C@H](CCC(=O)O)NC(=O)[C@H](CC(C)C)NC(=O)C(C)(C)NC(=O)[C@@H](NC(=O)[C@H](CO)NC(=O)[C@H](Cc1ccc(O)cc1)NC(=O)[C@H](CC(=O)O)NC(=O)[C@H](CO)NC(=O)[C@@H](NC(=O)[C@H](Cc1ccccc1)NC(=O)[C@@H](NC(=O)CNC(=O)[C@H](CCC(=O)O)NC(=O)C(C)(C)NC(=O)[C@@H](N)Cc1ccc(O)cc1)[C@@H](C)O)[C@@H](C)O)[C@@H](C)CC)C(C)C)C(=O)N[C@@H](CC(N)=O)C(=O)N[C@@H](CCCCNC(=O)CC[C@H](NC(=O)CC[C@H](NC(=O)CC[C@H](NC(=O)CC[C@H](NC(=O)CC[C@H](NC(=O)CC[C@H](NC(=O)CCCCCCCCCCCCCCCCC(=O)O)C(=O)O)C(=O)O)C(=O)O)C(=O)O)C(=O)O)C(=O)O)C(=O)NC(C)(C)C(=O)N[C@H](C(=O)N[C@@H](CCCNC(=N)N)C(=O)N[C@@H](CCC(N)=O)C(=O)N[C@@H](CCCNC(=N)N)C(=O)N[C@@H](Cc1ccc(O)cc1)C(N)=O)[C@@H](C)O` [Compound 134, Y-Aib-E-G-T-F-T-S-D-Y-S-I-Aib-L-E-K-Q-A-Q-Aib-A-F-V-R-H-L-I-N-K(1,3)-Aib-T-R-Q-R-Y-NH2.C18DA-gGlu-gGlu-gGlu-gGlu-gGlu-gGlu(1,2)] came in with an MRT in data set [2] of 5.3 h. Also, the EC50 on hNPY2R worked out at 32.8 nM; on hGIPR (setting [3]), 0.4 nM; on hGLP1R (setting [4]) it was 1 nM; on hGLP1R (100% human plasma, read-out: hGLP1R 100% hP), 4 nM.
